# Tested on: HFD-fed C57BL/6 mice
# Experiment: In vivo evaluation in HFD-fed C57BL/6 mice (Example 3)
# Settings: 6% in HFD ad libitum, 8 week
# Protocol: Animals were allowed free access to food and drinking water for the entire 8 week study. Animals were weighed on a weekly basis, and food and drinking water consumption monitored. Plasma and stool samples were collected at the beginning of the study, mid-study, and day of termination. These samples were used for the measurement of the disease makers.
# Disease markers were also assessed in liver tissues collected from mice as follows. Liver tissues from mice were collected, fixed by immersion in 10% neutral buffered formalin. Fixed tissue specimens were sent to a histological processing laboratory (Premier Laboratory, Longmont, Colo.), where they were paraffin embedded, sectioned (approximately 4 μm), mounted, and stained with hematoxylin and eosin (H&E) using standard methods.
# Liver sections (2) for each animal were scored from a scan of the H&E-stained slide for inflammation, steatosis (macrovesicular vacuolation) and ballooning ([…] vacuolation) using a modified grading scale based on human biopsy scoring (Brunt et al., Am J Clin Pathol, 128:837-47, 2007). Inflammation was scored 0=no inflammation, 1=minimal (1-3 foci of scattered (lobar) inflammatory cells), 2=mild (3 to 10 scattered foci of inflammatory cells with or without portal/periportal inflammation), 3=moderate (>10 scattered (lobar) foci of inflammatory cells and/or marked portal/periportal inflammation. Steatosis was graded (as in Brunt et al., Am J Clin Pathol, 128:837-47, 2007) as follows: 0=no steatosis, grade 1: ≤33%; grade 2: >33%, <66%; 3: ≥66%. Ballooning was scored as follows: 0=no ballooning, 1=rare/few, and 2=many hepatocytes with microvesicular vacuolation.
smiles,measurement,value
"CC(=O)Oc1cc(OC(C)=O)c2c(c1)O[C@H](c1cc(OC(C)=O)c(OC(C)=O)c(OC(C)=O)c1)[C@H](OC(=O)c1cc(OC(C)=O)c(OC(C)=O)c(OC(C)=O)c1)C2 [Compound 4, [(2R,3R)-5,7-diacetoxy-2-(3,4,5-triacetoxyphenyl)chroman-3-yl] 3,4,5-triacetoxybenzoate]",ballooning score (FIG. 4),lower ballooning score than the animals fed a high fat diet only
same,glucose tolerance (FIG. 2),exceeded that of animals in the HFD+rosiglitazone
same,histological analysis of the livers: steatosis (FIGS. 5A-5G),significantly lower steatosis
same,percentage change in weight (FIG. 1),underwent weight loss
same,steatosis score (FIG. 3),lower steatosis score than the animals fed high fat diet only
